Measurements as given in patent US20240207202A1, “COMBINATION THERAPIES TARGETING MITOCHONDRIAL BIOGENESIS FOR CANCER THERAPY” (The Wistar Institute of Anatomy and Biology, priority 2015, published 2024).
Like-named read-outs stand apart in the source and are kept apart here.

Assays:
[1] = system: 1205Lu melanoma xenograft; assay: Tumor volume of 1205Lu melanoma xenografts; format: in vivo, mice; conditions: 1205Lu xenografts
WM9 melanoma cells = assay: Induction of apoptosis and cell death by PSVue 643 staining in WM9 melanoma cells; format: cell-based, human; conditions: WM9, 72 h
Protocol: Adherent melanoma cells were harvested with 0.05% Trypsin-EDTA and were washed once with 1×DPBS. Cells were labeled with CellTrace™ Violet according to the manufacturer's protocol and were allowed to adhere to tissue culture plates overnight following the drug treatment. […] Cells were then immediately subjected to FACS analysis using a BD LSR II flow cytometer and at least 5,000 cells per sample were acquired.
Cell suspensions were kept in the dark at room temperature for 5 min. 0.2 ml 1×PBS supplemented with 10% FBS was added to each cell suspension and cells were immediately analyzed by BD LSRII.
Briefly, autophagic flux was assessed by FACS analysis of WM9 cells expressing the mCherry-eGFPLC3B construct that were transfected with the indicated siRNAs targeting autophagy and ER stress response and treated for 72 h with DMSO or the combination of PLX4720 at 10 μM and PD0325901 at 1 μM. The data represent the average of 2 biological replicates. […] Autophagic flux was assessed by FACS analysis of WM9 cells expressing the mCherry-eGFPLC3B construct treated for 72 h with Gamitrinib at 1 μM or Spautin-1 at 10 μM in combination with PLX4720 at 10 μM/PD0325901 at 1 μM. Cells treated with DMSO were used as the control for setting up the gate.

MitoBiogenesis [2] = conditions: Malme-3M and COLO829, 8 h; public gene expression microarray data; cited from earlier work
[3] = system: CCLE melanoma cell lines with BRAFV600 mutations; conditions: MitoB high vs low subgroups, two sample t-test; cited from earlier work
MitoBiogenesis [4] = assay: Expression of 18 MitoBiogenesis genes in melanoma cells (microarray, qRT-PCR, immunoblot); format: cell-based, human; conditions: for expression of MitoBiogenesis: qRT-PCR, 72 h
Protocol: One μg total mRNA was reverse transcribed using a Maxima First Strand cDNA Synthesis Kit for qRT-PCR (Thermo Fisher). Fast SYBR® Green Master Mix (Life Technologies) was used with cDNA template and primers to evaluate the expression of target genes and GAPDH. Primers used were purchased from Integrated DNA Technologies. Amplifications were performed using an Applied Biosystems® 7500 Real-Time PCR System (Life Technologies). All experiments were performed in triplicate. Expression ratios of controls were normalized to 1. Please see Extended Experimental Procedures for the list of PCR primer sequences. Access of Gene Expression Microarray Data and TCGA Melanoma Patients' RNA-seq Data Time-course Illumina gene expression microarray data of WM9 melanoma cells were deposited at the NCBI Gene Expression Omnibus (GEO) (ncbi.nlm.nih.gov/geo/) under the accession number GSE58721. Normalized CCLE gene expression microarray data were directly downloaded from Broad CCLE (broadinstitute.org/ccle). Gene expression microarray data of A375 and SK-MEL-28 melanoma cells were downloaded from GEO under accession numbers GSE42872 and GSE37441, respectively. Gene expression microarray data of Malme-3M and COLO829 melanoma cells were downloaded from GEO under the accession number GSE51113. Normalized RNA-seq data of TCGA melanoma patients were downloaded from TCGA Data Portal (https://tcga-data.nci.nih.gov/tcga/). Cells were washed with ice-cold PBS containing 100 μM Na3VO4 and scraped off culture dishes. After centrifugation, cell pellets were lysed in buffer containing 10 mM Tris-HCl, pH 7.8, 150 mM NaCl, 1 mM EDTA, 1% Nonidet P-40, 1 mM Na3VO4 and protease inhibitors (Roche complete protease inhibitor tablets). Lysates were cleared by micro-centrifugation and protein concentrations were determined with Protein Assay Dye Reagent Concentrate (Bio-Rad). For western blots, 25 μg of each lysate were run on 15-well 10% or 12% SDS-PAGE gels and transferred onto nitrocellulose membranes using a dye fast Trans-BlotR Turbo™ transfer system (Bio-Rad). […]

[5] = system: mitochondrial respiratory chain complex subunits; assay: Expression of mitochondrial respiratory chain complex subunits in WM9 cells (qRT-PCR, RPPA, immunoblot); format: cell-based, human; conditions: qRT-PCR
Protocol: One μg total mRNA was reverse transcribed using a Maxima First Strand cDNA Synthesis Kit for qRT-PCR (Thermo Fisher). Fast SYBR® Green Master Mix (Life Technologies) was used with cDNA template and primers to evaluate the expression of target genes and GAPDH. Primers used were purchased from Integrated DNA Technologies. Amplifications were performed using an Applied Biosystems® 7500 Real-Time PCR System (Life Technologies). All experiments were performed in triplicate. Expression ratios of controls were normalized to 1. Please see Extended Experimental Procedures for the list of PCR primer sequences. The raw data of gene expression microarrays generated from Illumina Chips were normalized, background-corrected and summarized using the R package “lumi” (Du et al., 2008). […] To reduce false positives, the unexpressed probes were removed. The R package “limma” (Smyth, 2004, 2005) was employed for gene differential expression analysis, followed by multiple test correction by the Benjamini and Hochberg procedure (Benjamini and Hochberg, 1995). […] We also conducted GSEA as previously reported (Subramanian et al., 2005). For GSEA, we analyzed gene sets obtained from the Molecular Signatures Database (broadinstitute.org/gsea/msigdb/). The same differential expression analysis method was applied to RPPA data. Cells were washed with ice-cold PBS containing 100 μM Na3VO4 and scraped off culture dishes. After centrifugation, cell pellets were lysed in buffer containing 10 mM Tris-HCl, pH 7.8, 150 mM NaCl, 1 mM EDTA, 1% Nonidet P-40, 1 mM Na3VO4 and protease inhibitors (Roche complete protease inhibitor tablets). Lysates were cleared by micro-centrifugation and protein concentrations were determined with Protein Assay Dye Reagent Concentrate (Bio-Rad). For western blots, 25 μg of each lysate were run on 15-well 10% or 12% SDS-PAGE gels and transferred onto nitrocellulose membranes using a dye fast Trans-BlotR Turbo™ transfer system (Bio-Rad). Blots were blocked in SEA BLOCK Blocking Buffer (Thermo Scientific) diluted with 1×TBS at 1:1 ratio at room temperature for 1 h, incubated overnight with primary antibody at 4° C., stained with secondary antibodies conjugated to IRDye® Infrared Dyes (LI-COR Biosciences) and then visualized using an Odyssey flatbed scanner (LI-COR Biosciences).

[6] = system: BRAF(V600E), BRAF(wild type), c-RAF, VEGFR2, PDGFR, CSF1R, RET, c-KIT, SRC, STE20; conditions: range over several intracellular kinases; cited from earlier work
[7] = system: BRAFV600E, VEGFR2, PDGFRB, c-KIT; conditions: cited from earlier work
autophagic flux = assay: Autophagic flux in WM9 cells expressing mCherry-eGFP-LC3B; format: cell-based, human; conditions: WM9, 72 h, Gamitrinib 1 μM or Spautin-1 10 μM combined with PLX4720 10 μM/PD0325901 1 μM
Protocol: WM9 cells stably expressing pLVO-Puro-mCherry-eGFP-LC3 were analyzed with a BD LSR II flow cytometer. Fluorescence of mCherry and eGFP was recorded to derive the ratio of mCherryheight over eGFP-height. This ratio indicates the autophagic flux.
Briefly, autophagic flux was assessed by FACS analysis of WM9 cells expressing the mCherry-eGFPLC3B construct that were transfected with the indicated siRNAs targeting autophagy and ER stress response and treated for 72 h with DMSO or the combination of PLX4720 at 10 μM and PD0325901 at 1 μM. The data represent the average of 2 biological replicates. Induction of apoptosis and cell death was assessed by PSVue 643 staining in WM9 cells expressing the mCherry-eGFP-LC3B construct transfected with the indicated siRNAs targeting autophagy and ER stress response and treated for 72 h with DMSO or the combination of PLX4720 at 10 μM and PD0325901 at 1 μM. Autophagic flux was assessed by FACS analysis of WM9 cells expressing the mCherry-eGFPLC3B construct treated for 72 h with Gamitrinib at 1 μM or Spautin-1 at 10 μM in combination with PLX4720 at 10 μM/PD0325901 at 1 μM. Cells treated with DMSO were used as the control for setting up the gate. Induction of apoptosis and cell death was assessed by PSVue 643 staining in WM9 cells treated for 72 h with Gamitrinib at 1 μM or Spautin-1 at 10 μM in combination with PLX4720 at 10 μM/PD0325901 at 1 μM. […]

[8] = Table 6, mice treated 15 days, PLX4720 200 mg/kg diet, 2,4-DNP 20 mg/kg QD p.o., alone or combined

O=[N+]([O-])c1ccc(O)c([N+](=O)[O-])c1 [2,4-DNP, 2,4-dinitrophenol]
tumor growth ([1]; 2,4-DNP alone or with PLX4720, combination compared to PLX4720 alone): failed to inhibit tumor growth | % T/C (percentages of tumor volumes) [1, 8]: 101.96%

CC(=O)N[C@@H](CS)C(=O)O [NAC, N-acetyl-L-cysteine]
apoptosis and cell death induced by the combination of Gamitrinib and MAPK pathway inhibitors (WM9 melanoma cells; NAC 5 mM): markedly suppress apoptosis and cell death

O=C(NOC[C@H](O)CO)c1ccc(F)c(F)c1Nc1ccc(I)cc1F [PD0325901]
expression of MitoBiogenesis (MitoBiogenesis [2]): inhibited | drug IC50 of cell lines with higher basal level of MitoBiogenesis versus lower [3]: significantly lower drug IC50

CCCS(=O)(=O)Nc1ccc(F)c(C(=O)c2c[nH]c3ncc(Cl)cc23)c1F [PLX4720]
expression of MitoBiogenesis (MitoBiogenesis [4]; A375 cells): decreased the expression of MitoBiogenesis | expression of MitoBiogenesis (protein) (MitoBiogenesis [4]; WM9 cells, PLX4720 10 μM, 72 h time course, immunoblotting): up-regulated in a time-dependent manner | expression of MitoBiogenesis (MitoBiogenesis [4]; WM793 or WM9 cells): up-regulated MitoBiogenesis | expression of 30 mitochondria respiratory chain complex subunits ([5]; WM9, 72 h): substantially up-regulated | expression of 5 representative mitochondrial respiratory chain complex subunits ([5]; WM9, PLX4720 10 μM up to 120 h): up-regulated | drug IC50 of cell lines with higher basal level of MitoBiogenesis versus lower [3]: significantly lower drug IC50 | % T/C (percentages of tumor volumes) [1, 8]: 51.41% | % T/C (percentages of tumor volumes) ([1]; Table 7, 17 days, PLX4720 200 mg/kg diet): 56.88%

N=C(N)NC(=N)NCCc1ccccc1 [Phenformin, 1-phenethylbiguanide]
apoptosis and cell death, compared with other inhibitors of the drug screen (WM9 melanoma cells; titrated doses combined with MAPK pathway inhibitors (PLX4720 10 μM, PD0325901 1 μM)): greater increase in apoptosis and cell death

Cn1c(Nc2ccc(C(F)(F)F)cc2)nc2cc(Oc3ccnc(-c4ncc(C(F)(F)F)[nH]4)c3)ccc21 [RAF265]
IC50 [6]: […] | drug IC50 of cell lines with higher basal level of MitoBiogenesis versus lower [3]: significantly lower drug IC50 | potency in cell-based assays ([7]; BRAFV600E and VEGFR2): most potent | potency in cell-based assays ([7]; PDGFRB and c-KIT): less active

Fc1ccc(CNc2ncnc3ccc(F)cc23)cc1 [Spautin-1, reference compound]
induction of apoptosis and cell death (WM9 melanoma cells; Spautin-1 10 μM combined with PLX4720 10 μM/PD0325901 1 μM): not able to trigger a significant induction of apoptosis and cell death | autophagic flux (autophagic flux): effectively decreased the autophagic flux
